How the values were obtained:
Dectin-1 [1] = target: T1, Dectin-1 (Mus musculus, UniProt Q6QLQ4); test: Stimulation of Apc^Min/+ polyp-infiltrating leukocytes / CD11b+ cells with Curdlan, with or without laminarin pre-treatment, qPCR; format: cell-based; details: polyp-infiltrating leukocytes from Apc^Min/+ mice, Curdlan 20 hours, qPCR
T1 construct: CD11b^+ cells and CD11c^+ cells were purified from colorectal polyps with autoMACS; endogenous in cells; host or cells: primary CD11b+/CD11c+ cells or all polyp-infiltrating cells from colorectal/intestinal polyps of WT (C57BL/6J, AOM-DSS) or Apc^Min/+ mice
T1 sequence (Q6QLQ4 1-244): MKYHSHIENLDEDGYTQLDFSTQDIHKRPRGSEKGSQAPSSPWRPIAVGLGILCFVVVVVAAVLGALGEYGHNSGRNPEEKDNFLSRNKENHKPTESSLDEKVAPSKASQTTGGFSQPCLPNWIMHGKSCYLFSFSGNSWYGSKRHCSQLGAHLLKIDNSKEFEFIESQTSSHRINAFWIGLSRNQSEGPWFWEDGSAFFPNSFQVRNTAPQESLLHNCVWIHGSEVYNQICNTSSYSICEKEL
Description: (§1) FIG. 5f: All polyp-infiltrating cells of the Apc^Min/+ mice were collected, and were stimulated with Curdlan for 20 hours, and then the expression of the genes involved in the PGE2 synthesis was measured by qPCR. A laminarin treatment was performed for 4 hours before the Curdlan treatment.
as §1, with “5g: Purified CD11b^+” for “5f: All”, “treatment. The data in (FIGS. 5a to 5g) are representative of two independent experiments and expressed as mean±SD. *p<0.05, **p<0.01, and ***p<0.001.” for “treatment.”
Infiltrating cells in mouse/human colorectal tumor/non-tumor tissues (2×10^5) or mouse/human colorectal tumor/non-tumor tissue pieces (3 mm×3 mm cut) were cultured with Dectin-1 ligands Curdlan, OXCA, or laminarin, or with PGE2 stimulation for 20 h at 37° C. under 5% CO2 in 96-well flat-bottomed plates (Falcon, Becton Dickinson) in a volume of 0.2 ml RPMI containing 10% FBS and 1% streptomycin plus penicillin. After the culture, cells or tissues were collected and mRNA expression of tumor- or anti-tumor-associated genes was measured by qPCR described in Quantitative reverse transcription PCR section described later. […]

DECTIN-1 [2] = target: T2, DECTIN-1 (Homo sapiens, UniProt Q9BXN2); test: Curdlan stimulation of human CRC tissues or cancer-infiltrating leukocytes, qPCR; format: cell-based; details: Curdlan 20 hours
T2 construct: endogenous in cells; host or cells: tumour-infiltrating cells and small tumour tissue pieces from surgical specimens of human CRC patients
T2 sequence (Q9BXN2 1-247): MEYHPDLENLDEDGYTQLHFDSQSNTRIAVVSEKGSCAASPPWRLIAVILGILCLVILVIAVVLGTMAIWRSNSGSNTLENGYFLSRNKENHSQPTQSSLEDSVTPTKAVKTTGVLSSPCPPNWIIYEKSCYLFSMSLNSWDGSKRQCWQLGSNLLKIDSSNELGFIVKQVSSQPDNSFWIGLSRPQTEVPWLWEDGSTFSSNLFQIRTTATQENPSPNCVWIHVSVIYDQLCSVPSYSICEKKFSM
Description: (§2) FIG. 7g: CRC samples were collected, and tumor-infiltrating cells were stimulated with Curdlan for 20 hours. In the case of the laminarin treatment, the cells were first treated with laminarin for 4 hours, and thereafter, were supplied with Curdlan and cultured. Expression of PGE2 synthesizing enzymes was determined by qPCR. Data are mean±SD of 3 wells.
as §2, with “7h:” for “7g:”, “tumor-infiltrating cells and normal tissue-infiltrating” for “tumor-infiltrating”, “CD33” for “PGE2 synthesizing enzymes”
FIG. 13c: Fresh CRC specimens were collected after surgery, and small pieces of tumor tissues were stimulated with Curdlan for 20 hours. In the case of the laminarin treatment, the tissues were first treated with laminarin for 4 hours, and then Curdlan was added to the cultured tissues. The expression of the PGE2 synthase was determined by qPCR. The data are expressed as mean SD of 3 wells. *p<0.05, **p<0.01, and ****p<0.0001. […]

Dectin-1 [3] = target: T1, Dectin-1; details: autoimmune-prone; cited from earlier work

- expression of Ptges3, Ptgs1 and Ptgs2 (Dectin-1 [1]): significantly induced
- PGE2 synthase gene expression (DECTIN-1 [2]; CRC tissues or cancer-infiltrating leukocytes): induction
- expression of CD33 (DECTIN-1 [2]; tumor or normal tissue-infiltrating cells): upregulated
Substance: Curdlan
- disease induction in SKG mice (Dectin-1 [3]): evokes arthritis, spondyloarthritis and ileitis
